The values that follow come from patent publication US10912814B2, “Combination formulation of three antiviral compounds” (priority 2016, dated 2021).

Series [1] can be described thus: Storage stability: appearance, assay/label strength (LS), total impurities/degradation products. The class given is physicochemical. The conditions noted are these: for physical and chemical stability: open container, 1 month at 40° C./75% RH. On the procedure:
In some embodiments, the film-coated tablets were packaged in 75 and 100 mL white HDPE bottles (Lots A and B, respectively, as described in Tables 11A, 11B) with 1 g silica gel desiccant canisters and a polyester fiber coil. The 75 and 100 mL HDPE bottles contained fourteen and twenty eight tablets, respectively. Each HDPE bottle was capped using a white, continuous thread, child-resistant polypropylene screw cap with an […], aluminum-faced line. The packaged tablets (14 and 28 counts) were evaluated for stability at 40° C./75% RH and 25° C./60% RH. Additionally, the 14-count bottles (without cap) were evaluated for stability under open conditions at 40° C./75% RH.
For each of the impact studies, the sofosbuvir/velpatasvir SSD/voxilaprevir SSD tablets were packaged in a designated commercial packaging configuration (28-count, 100 mL HPDE bottle, coil, 1 g desiccant), and stored for 12 weeks at 25° C./60% RH and 40° C./75% RH. Tablets were also packaged in open containers (28-count, 100 mL HPDE bottle without cap) and stored for 4 weeks at 40° C./75% RH and for 1 week at 50° C./92% RH.
The sofosbuvir/velpatasvir SSD/voxilaprevir SSD tablets were packaged in the designated commercial packaging configuration (28-count, 100 mL HPDE bottle, coil, 1 g desiccant), and stored for 6 months at 25° C./60% RH and 40° C./75% RH.

Series [2] can be described thus: Tablet dissolution as a function of medium pH and composition (Apparatus II, 75 rpm, 900 mL, 37° C.). The class given is physicochemical. The conditions noted are these: Formulation G tablets.
Another series in a line: BCS classification. The series is classed as physicochemical.
Series [3] in a line: Photostability (light exposure, ICH Q1B). The series is classed as physicochemical. On the procedure: In some embodiments, and the Examples presented herein, the tablet formulation includes sofosbuvir having Form 6 and, optionally, a trace amount of Form 7.
Tablet cores and film-coated tablets were evaluated per ICH Q1B guidelines with a total of illumination of more than 1.2 million-lux hours and a total irradiance of more than 200 W·hr/m^2.

Series [4] can be described thus: Velpatasvir single and multiple oral dose pharmacokinetics. The series is classed as in vivo, human. The conditions noted are these: for concentration at 24 h: human, plasma, oral, 5 mg, mean. The procedure: Following single and multiple oral doses of velpatasvir, maximum plasma concentrations occurred between 1.50 and 3.25 hours (median tmax).
A short description of series [5]: Tablet dissolution in 50 mM sodium acetate buffer pH 5.0 with 2.0% w/v Polysorbate 80 and 0.001% w/v BHT, 75 rpm, 900 mL, 37° C., USP Type II. Conditions: for dissolution at 30 minutes: after 4 weeks open at 40° C./75% RH. The class given is physicochemical.
Series [6] is described as follows: Oral bioavailability of crystalline voxilaprevir forms in a dog model. The conditions noted are these: in vivo, read-out: oral bioavailability, less than that of crystalline Form VI. The procedure: (§1) As described previously, Form VIII of voxilaprevir is characterized by an X-ray powder diffractogram comprising the following peaks (±0.2°): at 7.8, 8.2, and 20.2°2θ, as determined on a diffractometer using Cu-Kα radiation.

Series [7] in a line: Solubility (aqueous, spray-drying solvents). The series is classed as physicochemical.
From the text: (§2) In some embodiments, and the Examples presented herein, the tablet formulation includes sofosbuvir having Form 6 and, optionally, a trace amount of Form 7. […] Form 6 of sofosbuvir is the thermodynamically stable form and remains physically stable when suspended in water. Form 7 of Sofosbuvir, while physically stable in water for short periods of time, can be converted to Form 6 with prolonged stirring.
as §1
The selection of a suitable solvent for the spray drying process was based on (1) the solubility of voxilaprevir EAS, Form II and copovidone in the solvent, (2) the chemical stability of voxilaprevir EAS, Form II in the presence of the solvent, and (3) the impact of the solvent on feed solution properties and particle properties of the resulting solid dispersion. Acetone and dichloromethane were evaluated as solvents for the feed solution because of their low boiling points and the high solubility of voxilaprevir EAS, Form II (>300 mg/mL) in these solvents.

Another series in a line: Hygroscopicity. The series is classed as physicochemical.
From the text: as §2
Voxilaprevir SSD is hygroscopic, with a reversible weight gain of 11% when cycled between 0% and 90% RH at 25° C.

Where two headings read alike, the source gives them in different places. A value given as a limit tells only on which side of the number the result lay.

Take `COC[C@H]1C[C@@H](c2ncc(-c3ccc4c(c3)COc3cc5c(ccc6nc([C@@H]7CC[C@H](C)N7C(=O)[C@@H](NC(=O)OC)C(C)C)[nH]c65)cc3-4)[nH]2)N(C(=O)[C@H](NC(=O)OC)c2ccccc2)C1` [Velpatasvir, methyl {(2S)-1-[(2S,5S)-2-(9-{2-[(2S,4S)-1-{(2R)-2-[(methoxycarbonyl)amino]-2-phenylacetyl}-4-(methoxymethyl)pyrrolidin-2-yl]-1H-imidazol-5-yl}-1,11-dihydroisochromeno[4′,3′:6,7]naphtho[1,2-d]imidazol-2-yl)-5-methylpyrrolidin-1-yl]-3-methyl-1-oxobutan-2-yl}carbamate]: the total impurities/degradation products turned out to be 0.0% in series [1] (packaged Formulation G tablets (Tables 11A, 11B), 40° C./75% RH and 25° C./60% RH for 6 months); 0.0% in [1] (tablet Lots A-D from sub-potent/super-potent VEL SSD and VOX SSD, all conditions); 0.0% in series [1] (tablets from SSDs made with high-peroxide copovidone (544 ppm VEL SSD, 655 ppm VOX SSD)); 0.0% in series [1] (tablets from VEL SSD with 6.0% residual ethanol and VOX SSD with 2.1% residual acetone, all conditions); 0.0% in series [1] (tablets from VEL SSD with 7.0% and VOX SSD with 3.2% water content, all conditions). Further, the “dissolution at 60 minutes in pH 4.0 and 5.0 containing 2.0% w/v polysorbate 80” value in series [2] is “complete dissolution”. Also, in series [2], the “dissolution in pH 2.0, 4.5 and 6.8 buffers, FaSSIF and FeSSIF” value was “Incomplete dissolution”. The “aqueous solubility, pH dependence” value in the series “BCS classification” is reported as “pH-dependent solubility”. Also, the “level of degradation products” value in [3] (tablets film-coated to weight gains of 2.1 to 5.4%, ICH Q1B) was 0.4%. Also, in [3] (uncoated tablet cores (Formulation G), ICH Q1B), the “loss after exposure to light” value is given as “up to 0.3%”. Besides, the “dose linearity of PK” value in series [4] (dose range of 5 to 450 mg) was “nonlinear PK”. For the same compound, the concentration at 24 h in [4] (multiple dose 5 mg, read-out: Ctau) was determined as 2.2 ng/mL; in series [4] (single dose 5 mg, read-out: Clast), 1.4 ng/mL. For the same compound, the “dissolution at 30 minutes” value in series [5] (SSD potency tablets Lot A) turned out to be 86%; in series [5] (SSD potency tablets Lot B) it was 91%. Further, the “release at 30 minutes” value in series [5] (tablets containing neat amorphous velpatasvir free base (physical mixture with copovidone)) is on record as 62%; in series [5] (tablets containing velpatasvir SSD), 91%.

Consider `CC[C@@H]1[C@@H]2CN(C(=O)[C@H](C(C)(C)C)NC(=O)O[C@@H]3C[C@H]3CCCCC(F)(F)c3nc4ccc(OC)cc4nc3O2)[C@@H]1C(=O)N[C@]1(C(=O)NS(=O)(=O)C2(C)CC2)C[C@H]1C(F)F` [crystalline Form VIII], for which the bioavailability (usually dose-corrected exposure relative to a reference, in per cent) in series [6] was about 50%.

As for `CC(C)OC(=O)[C@@H](C)N[P@](=O)(OC[C@H]1O[C@@H](n2ccc(=O)[nH]c2=O)[C@](C)(F)[C@@H]1O)Oc1ccccc1` [sofosbuvir Form 6], the “physical and chemical stability” value in [1] was “physically and chemically stable”. Besides, the solubility (in general, how much of the substance goes into solution per volume) in series [7] (water, 37° C., read-out: aqueous solubility) was at least 2 mg/mL. Further, the photosensitivity entry in series [3] was “not photosensitive”. The hygroscopicity result in “Hygroscopicity” is listed as “non-hygroscopic”.

As to `CC(C)OC(=O)[C@@H](C)N[P@](=O)(OC[C@H]1O[C@@H](n2ccc(=O)[nH]c2=O)[C@](C)(F)[C@@H]1O)Oc1ccccc1` [sofosbuvir Form 7], the “physical and chemical stability” value in series [1] was “physically and chemically stable”. Besides, the photosensitivity result in series [3] was “not photosensitive”. Further, the hygroscopicity entry in “Hygroscopicity” is reported as “non-hygroscopic”.

For the compound `CC[C@@H]1[C@@H]2CN(C(=O)[C@H](C(C)(C)C)NC(=O)O[C@@H]3C[C@H]3CCCCC(F)(F)c3nc4ccc(OC)cc4nc3O2)[C@@H]1C(=O)N[C@]1(C(=O)NS(=O)(=O)C2(C)CC2)C[C@H]1C(F)F` [voxilaprevir EAS, Form II], the solubility in series [7] (acetone and dichloromethane, organic solvent or mixture, read-out: solubility in acetone and dichloromethane) is over 300 mg/mL.
